In brackets after ≈: the same amount, converted by molar mass.
Legend:
Format in all cases: cell-based
[1] = test system: Candida albicans ATCC 10231 (A); assay: MIC determination by in vitro antifungal assay; details: ATCC10231, 48 h, read-out: MIC (MIC-0)
[2] = test system: C. albicans ATCC 64124(R) (B); assay: MIC determination by in vitro antifungal assay; details: Candida albicans, ATCC64124, 48 h, read-out: MIC (MIC-0)
[3] = test system: C. albicans ATCC MYA-2876(S) (C); assay: MIC determination by in vitro antifungal assay; details: Candida albicans, 48 h, read-out: MIC (MIC-0)
[4] = test system: C. albicans ATCC 90819(R) (D); assay: MIC determination by in vitro antifungal assay; details: Candida albicans, ATCC90819, 48 h, read-out: MIC (MIC-0)
[5] = test system: C. albicans ATCC MYA-2310(S) (E); assay: MIC determination by in vitro antifungal assay; details: Candida albicans, 48 h, read-out: MIC (MIC-0)
[6] = test system: C. albicans ATCC MYA-1237(R) (F); assay: MIC determination by in vitro antifungal assay; details: Candida albicans, 48 h, read-out: MIC (MIC-0)
[7] = test system: C. albicans ATCC MYA-1003(R) (G); assay: MIC determination by in vitro antifungal assay; details: Candida albicans, 48 h, read-out: MIC (MIC-0)
[8] = test system: Aspergillus flavus ATCC MYA-3631 (K); assay: MIC determination against filamentous fungi; details: 48 h, read-out: MIC (MIC-0)
[9] = test system: Aspergillus nidulans ATCC 38163 (L); assay: MIC determination against filamentous fungi; details: ATCC38163, 48 h, read-out: MIC (MIC-0)
[10] = test system: Aspergillus terreus ATCC MYA-3633 (M); assay: MIC determination against filamentous fungi; details: 48 h, read-out: MIC (MIC-0)
[11] = test system: C. albicans, non-albicans Candida, and Aspergillus strains; assay: Antifungal activity over the panel of 13 fungal strains; details: for MIC: read-out: antifungal activity class based on MIC values; for antifungal activity (in words): overall, fungal strains tested (27 except strains K and L); for antifungal activity class based on MIC values: against all fungal strains tested (5 and 6 except strain K)

Compound | MIC [1] [µg/mL] | MIC [2] [µg/mL] | MIC [3] [µg/mL] | MIC [4] [µg/mL] | MIC [5] [µg/mL] | MIC [6] [µg/mL] | MIC [7] [µg/mL] | MIC [8] [µg/mL] | MIC [9] [µg/mL] | MIC [10] [µg/mL] | MIC [11] [µg/mL] | antifungal activity (in words) [11] | antifungal activity class based on MIC values [11]
CC[C@H](C)C[C@H](C)CCCCCCCCC(=O)N[C@H]1C[C@@H](O)[C@@H](NCCN)NC(=O)[C@@H]2[C@@H](O)CCN2C(=O)[C@H]([C@H](O)CCN)NC(=O)[C@H]([C@H](O)[C@@H](O)c2ccc(O)cc2)NC(=O)[C@@H]2C[C@@H](O)CN2C(=O)[C@H]([C@@H](C)O)NC1=O [CAS, caspofungin, reference compound] | 0.975 (≈ 0.892 µM) | 0.24 (≈ 0.22 µM) | 0.06 (≈ 0.0549 µM) | 0.12 (≈ 0.11 µM) | 0.12 (≈ 0.11 µM) | 0.24 (≈ 0.22 µM) | 0.48 (≈ 0.439 µM) | > 31.3 | > 31.3 | > 31.3 | – | – | –
CCCCCCCCCCCCCCN1CCOCC1 [Compound 10, 4-Tetradecyl Morpholine] | > 31.3 | > 31.3 | > 31.3 | > 31.3 | > 31.3 | > 31.3 | > 31.3 | > 31.3 | > 31.3 | > 31.3 | ≥ 31.3 | – | –
CCCCCCCCCCCN1CCN(CC(O)(Cn2cncn2)c2ccc(F)cc2F)CC1 (centres unmarked) [Compound 21, 2-(2,4-Difluorophenyl)-1-(1H-1,2,4-triazol-1-yl)-3-(4-undecylpiperazine)propan-2-ol] | 1.95 (≈ 4.08 µM) | 15.6 (≈ 32.7 µM) | 7.8 (≈ 16.3 µM) | 15.6 (≈ 32.7 µM) | 15.6 (≈ 32.7 µM) | 15.6 (≈ 32.7 µM) | 15.6 (≈ 32.7 µM) | 1.95 (≈ 4.08 µM) | 1.95 (≈ 4.08 µM) | 1.95 (≈ 4.08 µM) | – | – | –
OC(CN1CCOCC1)(Cn1cncn1)c1ccc(F)cc1F (centres unmarked) [Compound 27, 2-(2,4-Difluorophenyl)-1-(1H-1,2,4-triazol-1-yl)-3-(mopholine)-propan-2-ol] | > 31.3 | > 31.3 | > 31.3 | 3.9 to 31.3 (≈ 12 to 96.5 µM) | 7.8 to 31.3 (≈ 24 to 96.5 µM) | > 31.3 | 31.3 (≈ 96.5 µM) | – | 1.95 (≈ 6.01 µM) | 15.6 (≈ 48.1 µM) | – | inactive | –
CCCCCCCCCCCCCN1CCNCC1 [Compound 8, 1-Tridecyl Piperazine] | 0.975 (≈ 3.63 µM) | 0.975 (≈ 3.63 µM) | 1.95 (≈ 7.26 µM) | 0.975 (≈ 3.63 µM) | 1.95 (≈ 7.26 µM) | 1.95 (≈ 7.26 µM) | 1.95 (≈ 7.26 µM) | 1.95 (≈ 7.26 µM) | 0.975 (≈ 3.63 µM) | 1.95 (≈ 7.26 µM) | 0.015 to 1.95 (≈ 0.0559 to 7.26 µM) | – | –
CCCCCCCCN1CCNCC1 [Compound 3, 1-Octyl Piperazine] | > 31.3 | > 31.3 | > 31.3 | > 31.3 | > 31.3 | > 31.3 | > 31.3 | > 31.3 | > 31.3 | > 31.3 | – | – | –
CCCCCCCCCN1CCNCC1 [Compound 4, 1-Nonyl Piperazine] | 31.3 (≈ 147 µM) | > 31.3 | > 31.3 | 31.3 (≈ 147 µM) | 31.3 (≈ 147 µM) | 31.3 (≈ 147 µM) | > 31.3 | 31.3 (≈ 147 µM) | > 31.3 | > 31.3 | ≥ 31.3 | – | –
OC(CNCCN1CCOCC1)(Cn1cncn1)c1ccc(F)cc1F (centres unmarked) [Compound 28, 2-(2,4-Difluorophenyl)-1-(1H-1,2,4-triazol-1-yl)-3-(4-(2-aminoethyl)morpholine)propan-2-ol] | 31.3 (≈ 85.2 µM) | 31.3 (≈ 85.2 µM) | 31.3 (≈ 85.2 µM) | > 31.3 | > 31.3 | 31.3 (≈ 85.2 µM) | > 31.3 | > 31.3 | > 31.3 | > 31.3 | – | inactive | –
CCCCCN1CCN(CC(O)(Cn2cncn2)c2ccc(F)cc2F)CC1 (centres unmarked) [Compound 17, 2-(2,4-Difluorophenyl)-1-(1H-1,2,4-triazol-1-yl)-3-(4-pentylpiperazine)propan-2-ol] | > 31.3 | > 31.3 | > 31.3 | 31.3 (≈ 79.5 µM) | > 31.3 | > 31.3 | > 31.3 | > 31.3 | > 31.3 | > 31.3 | – | basically inactive | –
CCCCCCCCCN1CCN(CC(O)(Cn2cncn2)c2ccc(F)cc2F)CC1 (centres unmarked) [Compound 19, 2-(2,4-Difluorophenyl)-1-(1H-1,2,4-triazol-1-yl)-3-(4-nonylpiperazine)propan-2-ol] | 0.975 (≈ 2.17 µM) | 7.8 (≈ 17.3 µM) | 3.9 (≈ 8.67 µM) | 7.8 (≈ 17.3 µM) | 15.6 (≈ 34.7 µM) | 15.6 (≈ 34.7 µM) | 15.6 (≈ 34.7 µM) | 0.48 (≈ 1.07 µM) | 0.975 (≈ 2.17 µM) | 1.95 (≈ 4.34 µM) | – | – | –
CN1CCNCC1 [Compound 1, N-methylpiperazine] | > 31.3 | > 31.3 | > 31.3 | > 31.3 | > 31.3 | > 31.3 | > 31.3 | > 31.3 | > 31.3 | > 31.3 | ≥ 31.3 | – | –
Fc1ccc(C2(Cn3cncn3)CO2)c(F)c1 (centres unmarked) [Compound 14, 1-[[2-(2,4-Difluorophenyl)-2-oxiranyl]methyl]-1H-1,2,4-triazole] | > 31.3 | > 31.3 | > 31.3 | > 31.3 | > 31.3 | > 31.3 | > 31.3 | > 31.3 | > 31.3 | > 31.3 | – | inactivity | –
CCCCCCCCCCCN1CCNCC1 [Compound 6, 1-Undecyl Piperazine] | 7.8 (≈ 32.4 µM) | 7.8 (≈ 32.4 µM) | 15.6 (≈ 64.9 µM) | 7.8 (≈ 32.4 µM) | 7.8 (≈ 32.4 µM) | 7.8 (≈ 32.4 µM) | 15.6 (≈ 64.9 µM) | 31.3 (≈ 130 µM) | 15.6 (≈ 64.9 µM) | 15.6 (≈ 64.9 µM) | – | – | moderately active
CCCCCN1CCNCC1 [Compound 2, N-pentylpiperazine] | > 31.3 | > 31.3 | > 31.3 | > 31.3 | > 31.3 | > 31.3 | > 31.3 | > 31.3 | > 31.3 | > 31.3 | ≥ 31.3 | – | –
CCCCCCCCCCCCCN1CCN(CC(O)(Cn2cncn2)c2ccc(F)cc2F)CC1 (centres unmarked) [Compound 23, 2-(2,4-Difluorophenyl)-1-(1H-1,2,4-triazol-1-yl)-3-(4-tridecylpiperazine)propan-2-ol] | 1.95 (≈ 3.86 µM) | 7.8 (≈ 15.4 µM) | 1.95 (≈ 3.86 µM) | 1.95 (≈ 3.86 µM) | – | – | – | 0.975 (≈ 1.93 µM) | 0.975 (≈ 1.93 µM) | 0.975 (≈ 1.93 µM) | – | – | –
CCCCCCCCCCN1CCNCC1 [Compound 5, 1-Decyl Piperazine] | 15.6 (≈ 68.9 µM) | 15.6 (≈ 68.9 µM) | 15.6 (≈ 68.9 µM) | 15.6 (≈ 68.9 µM) | 15.6 (≈ 68.9 µM) | 15.6 (≈ 68.9 µM) | 15.6 (≈ 68.9 µM) | 31.3 (≈ 138 µM) | 15.6 (≈ 68.9 µM) | 15.6 (≈ 68.9 µM) | – | – | moderately active
